Measured values from the supplement of paper PMC10307832.

Columns and labels:
Experiment in all cases: relative viability (nuclei count vs DMSO), 5 days (fraction); higher = more cells survive
[1] = compound: NC1(c2ccc(-c3nc4ccn5c(=O)[nH]nc5c4cc3-c3ccccc3)cc2)CCC1 [MK-2206] + N=C(N)NC(=N)NCCc1ccccc1 [Phenformin] (partner 250 µM)
How it was run: (§1)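 Nuclei were stained with Hoechst during a one-step fixation (final 0.05% Triton X-100, 1% formaldehyde, 1 ug/ml Hoechst) carried out 5 days after dosing, then counted on 4× images. The cells, lung cancer lines in 1536-well plates, had been dosed by pin tool the day after seeding with one drug alone or a fixed anchor-drug dose plus five library-drug doses (not always all listed) in √10 steps. Relative viability is the nuclei count in treated wells divided by that in vehicle wells, and each value is the median of duplicate plates.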

[2] = compound: CS(=O)(=O)N1CCN(Cc2cc3nc(-c4cccc5[nH]ncc45)nc(N4CCOCC4)c3s2)CC1 [Pictilisib] + CCNC(=O)c1noc(-c2cc(C(C)C)c(O)cc2O)c1-c1ccc(CN2CCOCC2)cc1 [Luminespib] (partner 0.01 µM)
How it was run: as §1

[3] = compound: CS(=O)(=O)N1CCN(Cc2cc3nc(-c4cccc5[nH]ncc45)nc(N4CCOCC4)c3s2)CC1 [Pictilisib] + O=C(c1cc(Cc2n[nH]c(=O)c3ccccc23)ccc1F)N1CCN(C(=O)C2CC2)CC1 [Olaparib] (partner 8 µM)
How it was run: as §1

[4] = compound: CS(=O)(=O)N1CCN(Cc2cc3nc(-c4cccc5[nH]ncc45)nc(N4CCOCC4)c3s2)CC1 [Pictilisib] + CC(=O)Nc1cccc(-n2c(=O)n(C3CC3)c(=O)c3c(Nc4ccc(I)cc4F)n(C)c(=O)c(C)c32)c1 [Trametinib] (partner 0.02 µM)
How it was run: as §1

[5] = compound: CS(=O)(=O)N1CCN(Cc2cc3nc(-c4cccc5[nH]ncc45)nc(N4CCOCC4)c3s2)CC1 [Pictilisib] + COc1cccc2cc(-c3nc([C@H]4CC[C@H](C(=O)O)CC4)n4ncnc(N)c34)[nH]c12 [OSI-027] (partner 0.5 µM)
How it was run: as §1

UMC-11
relative viability ([1]; first compound 0.01 µM): 0.351 | relative viability ([1]; first compound 0.03162 µM): 0.312 | relative viability ([1]; first compound 0.3162 µM): 0.33 | relative viability ([1]; first compound 1 µM): 0.316 | relative viability ([2]; first compound 0.02 µM): 1.02 | relative viability ([2]; first compound 0.06325 µM): 1.15 | relative viability ([2]; first compound 0.6325 µM): 1.09 | relative viability ([2]; first compound 2 µM): 0.988 | relative viability ([3]; first compound 0.02 µM): 0.822 | relative viability ([3]; first compound 0.06325 µM): 0.344 | relative viability ([3]; first compound 0.6325 µM): 0.666 | relative viability ([3]; first compound 2 µM): 0.384 | relative viability ([4]; first compound 0.02 µM): 0.671 | relative viability ([4]; first compound 0.06325 µM): 0.872 | relative viability ([4]; first compound 0.6325 µM): 0.735 | relative viability ([4]; first compound 2 µM): 0.674 | relative viability ([5]; first compound 0.02 µM): 0.538 | relative viability ([5]; first compound 0.06325 µM): 0.526 | relative viability ([5]; first compound 0.6325 µM): 0.48 | relative viability ([5]; first compound 2 µM): 0.383
